The values that follow are results of earlier work, collected in patent publication US20050214389A1, “Beta-carotene enriched extract from water hyacinth eichhornia crassipes” (Council of Scientific and Industrial Research, priority 2004, published 2005).

In the first series the test system is polyamine oxidase. The settings on record: purified polyamine oxidase from leaves of water hyacinth.
For `NCCCCCCCCN` [Octamethylenediamine], the “inhibition of the enzyme” value is recorded as “strong inhibitors”. As to `O=C(O)c1cc[c]([Hg][Cl])cc1` [p-chloromercuribenzoate], the “inhibition of the enzyme” value is “without effect”. As to `CCN(CC)CCCC(C)Nc1c2ccc(Cl)cc2nc2ccc(OC)cc12` (stereo not shown) [quinacrine], the “inhibition of the enzyme” value is on record as “strong inhibitors”.

The same series, now with this note: substrate of purified polyamine oxidase from leaves of water hyacinth.
Turning to `NCCCCNCCCN` [spermidine], the Km was 28 mM. In the case of `NCCCNCCCCNCCCN` [spermine], the Km is 20 mM.

The subject of another series is Enterobacter sp. F2. The conditions noted are these: concentrations of from 10-7 to 10-2 mol/L.
Turning to `C[C@H](N)C(=O)O` [alanine], the “chemotaxis (attraction of F2)” value is listed as “strongly attracted”. As to `N=C(N)NCCC[C@H](N)C(=O)O` [arginine], the “chemotaxis (attraction of F2)” value is “not”. Turning to `NC(=O)C[C@H](N)C(=O)O` [asparagine], the “chemotaxis (attraction of F2)” value is on record as “not”.

Turning to `N[C@@H](CS)C(=O)O` [cysteine], the “chemotaxis (attraction of F2)” value is “not”. Take `NCCCC(=O)O` [gamma amino butyric acid]: the “chemotaxis (attraction of F2)” value was “strongly attracted”.

Turning to `N[C@@H](CCC(=O)O)C(=O)O` [glutamate], the “chemotaxis (attraction of F2)” value is given as “some degrees”. For the compound `NC(=O)CC[C@H](N)C(=O)O` [glutamine], the “chemotaxis (attraction of F2)” value is recorded as “not”. With `NCC(=O)O` [glycine], the “chemotaxis (attraction of F2)” value was “strongly attracted”.

`N[C@@H](Cc1c[nH]cn1)C(=O)O` [histidine]: the “chemotaxis (attraction of F2)” value is reported as “some degrees”. Take `CC[C@H](C)[C@H](N)C(=O)O` [isoleucine]: the “chemotaxis (attraction of F2)” value is “not”. On to `CC(C)C[C@H](N)C(=O)O` [leucine], for which the “chemotaxis (attraction of F2)” value is on record as “strongly attracted”. Turning to `NCCCC[C@H](N)C(=O)O` [lysine], the “chemotaxis (attraction of F2)” value is given as “not”.

Turning to `CSCC[C@H](N)C(=O)O` [methionine], the “chemotaxis (attraction of F2)” value is given as “strongly attracted”. On to `N[C@@H](Cc1ccccc1)C(=O)O` [phenylalanine], for which the “chemotaxis (attraction of F2)” value is “not”.

For `O=C(O)[C@@H]1CCCN1` [proline], the “chemotaxis (attraction of F2)” value is given as “not”.

`N[C@@H](CO)C(=O)O` [serine]: the “chemotaxis (attraction of F2)” value is listed as “strongly attracted”.

With `C[C@@H](O)[C@H](N)C(=O)O` [threonine], the “chemotaxis (attraction of F2)” value was “some degrees”. Regarding `N[C@@H](Cc1c[nH]c2ccccc12)C(=O)O` [tryptophan], the “chemotaxis (attraction of F2)” value is “not”. For `N[C@@H](Cc1ccc(O)cc1)C(=O)O` [tyrosine], the “chemotaxis (attraction of F2)” value was “not”. Regarding `CC(C)[C@H](N)C(=O)O` [valine], the “chemotaxis (attraction of F2)” value is reported as “strongly attracted”.
